Results published in US9610277B2, “Formula comprising a hypolipidemic agent” (Cadila Healthcare Limited, priority 2013, dated 2017).
“Also recorded” adds a separate entry of the source.

Legend:
Format in all cases: physicochemical
[1] = Stability of API at 40° C./75% RH (percent purity)
From the text: (§1) Therefore the inventors of the present invention have tried to develop a stable formulation of API such that the API is protected and cannot absorb moisture.

[2] = Sulfoxide impurity level over six months
From the text: Further, one of the impurity (sulfoxide) which was being generated in API increases from 0.17% to 0.76% over a period of 6 months. […] Therefore stabilization of compositions containing compounds of formula (I) can be made by maintaining the microenvironmental pH of composition above 7 by using suitable alkalinizers. Use of a suitable antioxidant(s) and chelating agent(s) further stabilizes the formulation.

[3] = pH degradation of API in standard pH buffers (sulfoxide impurity at 0.3 RRT); conditions: different standard pH buffers, after 24 hours
Procedure: FIG. 1: Percentage of sulfoxide impurity level (0.3 RRT) at different pH after 24 hours.
When the pH was modulated by addition of alkalinizer(s) then sulfoxide impurity level in API is restricted.
About 1% w/v aqueous dispersion of tablets was used for pH measurement. pH degradation can be seen with API when kept in different standard pH buffers.

[4] = Moisture absorption of API at 40° C./75% RH (water by KF)
From the text: as §1

## CCO[C@@H](Cc1ccc(OCCn2c(C)ccc2-c2ccc(SC)cc2)cc1)C(=O)O [API, Saroglitazar Magnesium]
[1]; 1 Month
  Percent Purity: 98.10%
[1]; 2 Month
  Percent Purity: 97.93%
[1]; 3 Month
  Percent Purity: 97.17%
[1]; Initial
  Percent Purity: 98.48%
[2]; after 6 months
  sulfoxide impurity level: 0.76%
[2]; start of the six month period
  sulfoxide impurity level: 0.17%
[3]
  Percentage individual impurity at 0.3 RRT (Sulphoxide impurity): restricted; also recorded: decreases as the solution of pH increases above pH 7
[4]; 1 Month
  Water By KF: 1.17%
[4]; 2 Month
  Water By KF: 2.32%
[4]; 3 Month
  Water By KF: 2.57%
[4]; Initial
  Water By KF: 0.62%
